Read-outs that look alike come from different tables or passages of the source.
Legend:
MCP-1 = MCP-1 mRNA expression in lung homogenate of infected mice (RT-qPCR); format: in vivo, ACE2 transgenic C57BL/6 mice; details: positive control 50 mg/kg, fifth day after infection
From the text: (§1) Mice: hACE2 mice, 6-7 weeks old, 20-40 g, 120 males in total, laboratory animal supplier: Jiangsu Gempharmatech Co., Ltd.; laboratory animal production license: SOCK (Su) 2018-0008; laboratory animal certificate No.: No.320727201100243581; diets supplier: Jiangsu Medicience Biopharmaceutical Co., Ltd.
(§2) Except for administrating PBS to the mice in the normal group by nasal drip, the mice in other groups were infected with 10^5 PFU of SARS-CoV-2 virus by nasal drip. Two hours after infection, phillyrin was intragastrically administrated to the mice in the administrating groups, once a day, for 5 consecutive days. On the fifth day after infection, the animals were dissected to take lungs for tissue homogenization to test the viral titer. Total RNA was extracted from the supernatant of lung tissue homogenate by Trizol method, and the mRNA expression of related inflammatory factors was detected by RT-qPCR.

SARS-CoV-2 virus [1] = test: Viral titer in lung tissues of novel coronavirus-infected mice; format: in vivo, ACE2 transgenic C57BL/6 mice; details: positive control 50 mg/kg, fifth day after infection
From the text: as §1, §2

SARS-CoV-2 virus [2] = test: Death protection of hACE2 mice infected with novel coronavirus; format: in vivo, hACE2 transgenic C57BL/6 mice; details: positive control 50 mg/kg
Description: Except for administrating PBS to the mice in the normal group by nasal drip, the mice in other groups were infected with 10^5 PFU of SARS-CoV-2 virus by nasal drip. […] Changes in body weight were recorded every day after infection, and 5-day mortality was calculated.

IFN-γ = IFN-γ mRNA expression in lung homogenate of infected mice (RT-qPCR); format: in vivo, ACE2 transgenic C57BL/6 mice; details: positive control 50 mg/kg, fifth day after infection
From the text: as §1, §2

IL-1β = IL-1β mRNA expression in lung homogenate of infected mice (RT-qPCR); format: in vivo, ACE2 transgenic C57BL/6 mice; details: positive control 50 mg/kg, fifth day after infection
From the text: as §1, §2

IFN-α = IFN-α mRNA expression in lung homogenate of infected mice (RT-qPCR); format: in vivo, ACE2 transgenic C57BL/6 mice; details: positive control 50 mg/kg, fifth day after infection
From the text: as §1, §2

HCoV-229E = test: CPE inhibition of HCoV-229E in vitro (process of first embodiment); format: cell-based
[3] = biological target: SARS-CoV-2 3CL pro protein (Severe acute respiratory syndrome coronavirus 2, UniProt P0DTD1); format: binding; details: 3CL pro protein peak at 278 nm; protein 10^−5 M, compound 10^−4 M

CCC(CC)COC(=O)[C@H](C)N[P@](=O)(OC[C@H]1O[C@@](C#N)(c2ccc3c(N)ncnn23)[C@H](O)[C@@H]1O)Oc1ccccc1 [Remdesivir]
MCP-1 mRNA expression in lung homogenate (MCP-1): 7.31 ± 5.14 | Viral titer in lung (Log10) (SARS-CoV-2 virus [1]): 1.68 ± 0.45 Log10 | Mean survival days (SARS-CoV-2 virus [2]): 4.86 ± 0.38 days | Survival rate (%) (SARS-CoV-2 virus [2]): 87.50% | IFN-γ mRNA expression in lung homogenate (IFN-γ): 173.79 ± 84.84 | IL-1β mRNA expression in lung homogenate (IL-1β): 7.41 ± 5.86 | IFN-α mRNA expression in lung homogenate (IFN-α): 69.99 ± 53.20

COc1cc([C@H]2OC[C@H]3[C@@H]2CO[C@H]3c2ccc(OC)c(OC)c2)ccc1O [phillygenin]
inhibitory effect (compared in the same study) (HCoV-229E; HCoV-229E, compared with the composition): worse

phillyrin [KD-1]
inhibitory effect (compared in the same study) (HCoV-229E): worse | change of UV-Vis absorbance of 3CL pro protein after compound was added [3]: the absorbance was increased and the peak shifted

From US20230101803A1, “3CLPRO-TARGETING PHILLYRIN, DERIVATIVE THEREOF, AND USE THEREOF AGAINST NOVEL CORONAVIRUS” (DALIAN FUSHENG NATURAL MEDICINE DEVELOPMENT CO., LTD., priority 2020, published 2023)
